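Briefly, cells in 96-well plates were exposed to five compound concentrations for 48 h, and endpoints were estimated by linear interpolation. GI50 marks 50% less growth. TGI is the concentration that stops growth completely.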
Key:
Assay in all cases: NCI-60 cell line screen, 48 h
786-0 renal = tested on: 786-0 renal
A498 renal = tested on: A498 renal
ACHN renal = tested on: ACHN renal
CAKI-1 renal = tested on: CAKI-1 renal
CCRF-CEM leukemia = tested on: CCRF-CEM leukemia
DU-145 prostate = tested on: DU-145 prostate
HCC-2998 colon = tested on: HCC-2998 colon
HCT-116 colon = tested on: HCT-116 colon
HCT-15 colon = tested on: HCT-15 colon
HL-60(TB) leukemia = tested on: HL-60(TB) leukemia
HOP-62 NSCLC = tested on: HOP-62 NSCLC
HOP-92 NSCLC = tested on: HOP-92 NSCLC
HS 578T breast = tested on: HS 578T breast
IGROV1 ovarian = tested on: IGROV1 ovarian
K-562 leukemia = tested on: K-562 leukemia
LOX IMVI melanoma = tested on: LOX IMVI melanoma
M14 melanoma = tested on: M14 melanoma
MALME-3M melanoma = tested on: MALME-3M melanoma
MCF7 breast = tested on: MCF7 breast
MDA-MB-435 = tested on: MDA-MB-435
MOLT-4 leukemia = tested on: MOLT-4 leukemia
NCI-H23 lung = tested on: NCI-H23 lung
NCI-H460 lung = tested on: NCI-H460 lung
NCI/ADR-RES ovarian = tested on: NCI/ADR-RES ovarian
OVCAR-5 ovarian = tested on: OVCAR-5 ovarian
PC-3 prostate = tested on: PC-3 prostate
RXF 393 renal = tested on: RXF 393 renal
SF-268 CNS = tested on: SF-268 CNS
SF-295 CNS = tested on: SF-295 CNS
SF-539 CNS = tested on: SF-539 CNS
SK-MEL-28 melanoma = tested on: SK-MEL-28 melanoma
SK-OV-3 ovarian = tested on: SK-OV-3 ovarian
SN12C renal = tested on: SN12C renal
SNB-75 CNS = tested on: SNB-75 CNS
T-47D breast = tested on: T-47D breast
TK-10 renal = tested on: TK-10 renal
UACC-62 melanoma = tested on: UACC-62 melanoma
UO-31 renal = tested on: UO-31 renal

## NC(N)=Nc1ccc(Oc2cccc(Nc3ccc(Cl)c(C(F)(F)F)c3)c2)cc1
786-0 renal
  GI50: 1620 nM
  TGI: 3190 nM
A498 renal
  GI50: 1640 nM
  TGI: 3200 nM
ACHN renal
  GI50: 2790 nM
  TGI: 8470 nM
CAKI-1 renal
  GI50: 1730 nM
  TGI: 3570 nM
CCRF-CEM leukemia
  GI50: 2680 nM
  TGI: 8960 nM
DU-145 prostate
  GI50: 1980 nM
  TGI: 3720 nM
HCC-2998 colon
  GI50: 1750 nM
  TGI: 3240 nM
HCT-116 colon
  GI50: 1620 nM
  TGI: 3130 nM
HCT-15 colon
  GI50: 1920 nM
  TGI: 4360 nM
HL-60(TB) leukemia
  GI50: 1990 nM
  TGI: 4290 nM
HOP-62 NSCLC
  GI50: 1600 nM
  TGI: 3160 nM
HOP-92 NSCLC
  GI50: 1290 nM
  TGI: 2650 nM
HS 578T breast
  GI50: 1930 nM
  TGI: 4620 nM
IGROV1 ovarian
  GI50: 1270 nM
  TGI: 2740 nM
K-562 leukemia
  GI50: 2500 nM
  TGI: 6510 nM
LOX IMVI melanoma
  GI50: 1690 nM
  TGI: 3150 nM
M14 melanoma
  GI50: 1820 nM
  TGI: 3450 nM
MALME-3M melanoma
  GI50: 1720 nM
  TGI: 3680 nM
MCF7 breast
  GI50: 1720 nM
  TGI: 3480 nM
MDA-MB-435
  GI50: 1670 nM
  TGI: 3080 nM
MOLT-4 leukemia
  GI50: 1950 nM
  TGI: 4570 nM
NCI-H23 lung
  GI50: 1710 nM
  TGI: 3210 nM
NCI-H460 lung
  GI50: 1880 nM
  TGI: 3560 nM
NCI/ADR-RES ovarian
  GI50: 14800 nM
  TGI: 34300 nM
OVCAR-5 ovarian
  GI50: 1560 nM
  TGI: 2940 nM
PC-3 prostate
  GI50: 1540 nM
  TGI: 3000 nM
RXF 393 renal
  GI50: 1620 nM
  TGI: 3050 nM
SF-268 CNS
  GI50: 1580 nM
  TGI: 3050 nM
SF-295 CNS
  GI50: 1660 nM
  TGI: 3210 nM
SF-539 CNS
  GI50: 1710 nM
  TGI: 3140 nM
SK-MEL-28 melanoma
  GI50: 1740 nM
  TGI: 3160 nM
SK-OV-3 ovarian
  GI50: 2690 nM
  TGI: 6670 nM
SN12C renal
  GI50: 1690 nM
  TGI: 3450 nM
SNB-75 CNS
  GI50: 1200 nM
  TGI: 2500 nM
T-47D breast
  GI50: 1750 nM
  TGI: 3950 nM
TK-10 renal
  GI50: 1940 nM
  TGI: 4750 nM
UACC-62 melanoma
  GI50: 1750 nM
  TGI: 3230 nM
UO-31 renal
  GI50: 2950 nM
  TGI: 11700 nM

From PubChem BioAssay (NCI)
